Measurements taken from patent publication US20120122928A1 (priority 2010, published 2012).

Legend:
Plasmopara viticola = experiment: Plasmopara test (grapevine) / protective; format: in vivo; settings: young grapevine plants sprayed, active ingredient concentration 10 ppm; evaluation 6 days after inoculation; 100% = no infection
Procedure: Plasmopara Test (Grapevine)/Protective
To produce an appropriate active ingredient formulation, 1 part by weight of active ingredient is mixed with the specified amounts of solvent and emulsifier, and the concentrate is diluted with water to the desired concentration.
To test for protective efficacy, young plants are sprayed with the active ingredient formulation at the stated application rate. After the spray coating has dried on, the plants are inoculated with an aqueous spore suspension of Plasmopara viticola and then remain in an incubation cabin at approx. 20° C. and 100% relative air humidity for 1 day. Subsequently, the plants are placed in a greenhouse at approx. 21° C. and approx. 90% air humidity for 4 days. The plants are then moistened and placed in an incubation cabin for 1 day.
Evaluation follows 6 days after the inoculation. 0% means an efficacy which corresponds to that of the control, whereas an efficacy of 100% means that no infection is observed.
In this test, the following inventive compounds show, at an active ingredient concentration of 10 ppm, an efficacy of 70% or more: […]

[1] = LC-MS determination in the acidic range, pH 2.7, 0.1% aqueous formic acid and acetonitrile
Phytophthora infestans = format: in vivo; settings: young tomato plants sprayed, active ingredient concentration of 100 (unit not given); inoculated 1 day after treatment; evaluation 7 days after inoculation; 100% = no infection
Peronospora brassicae = experiment: Peronospora test (oilseed rape seeds) / seed treatment; format: in vivo; settings: dose 50 g/dt, 14-day-old plants inoculated, incubated 7 days, infected leaf area, 100% = no disease
Procedure: Peronospora Test (Oilseed Rape Seeds)/Seed Treatment
The test was conducted under greenhouse conditions.
Oilseed rape seeds treated with an inventive active compound or a combination of inventive active compounds dissolved in N-methyl-2-pyrrolidone and diluted with water to the desired dose were sown in 6*6 cm vessels. The vessels contain 4 cm of a 1:1 mixture of steam-treated field soil and sand. The plants grew at 10° C.
14-day-old plants were inoculated with an aqueous spore suspension of Peronospora brassicae. The vessels containing the plants were incubated in a greenhouse at a temperature of 15° C. and a relative air humidity of 100% for 7 days.
The assessment of the test included the evaluation of the infected leaf area per plant. 0% means an efficiency corresponding to that of the control, while an efficiency of 100% means that no disease is observed.

SMILES	% eff. (Plasmopara viticola)	Log P [a] [1]	% eff. (Phytophthora infestans)	% eff. (Peronospora brassicae)	chromatographic logP (physchem; pH 2.7)	chromatographic logP (physchem; pH 7.8)
O=C(Cn1nc(C(F)F)cc1C(F)F)N1CCC(c2nc(C3=NOC(COc4ccccc4F)C3)cs2)CC1 (stereo not drawn) [I-3]	100%	3.19	100%	98%		
O=C(Cn1nc(C(F)F)cc1C(F)F)N1CCC(c2nc(C3=NOC(COc4c(F)cccc4F)C3)cs2)CC1 (stereo not drawn) [I-43, 2-[3,5-Bis(difluoromethyl)-1H-pyrazol-1-yl]-1-[4-(4-{5-[(2,6-difluorophenoxy)methyl]-4,5-dihydro-1,2-oxazol-3-yl}-1,3-thiazol-2-yl)piperidin-1-yl]ethanone]	100%		95%	98%	3.3	3.23
FC(F)c1cc(C(F)F)n(CC(=S)N2CCC(c3nc(C4=NOC(C(F)(F)c5ccccc5)C4)cs3)CC2)n1 (stereo not drawn) [I-31, 2-[3,5-Bis(difluoromethyl)-1H-pyrazol-1-yl]-1-[4-(4-{5-[difluoro(phenyl)methyl]-4,5-dihydro-1,2-oxazol-3-yl}-1,3-thiazol-2-yl)piperidin-1-yl]ethanethione]	85%		100%		3.88	
O=C(Cn1nc(C(F)F)cc1C(F)F)N1CCC(c2nc(C3=NOC(COc4ccccc4)C3)cs2)CC1 (stereo not drawn) [I-2, 2-[3,5-Bis(difluoromethyl)-1H-pyrazol-1-yl]-1-(4-{4-[5-(phenoxymethyl)-4,5-dihydro-1,2-oxazol-3-yl]-1,3-thiazol-2-yl}piperidin-1-yl)ethanone]	97%		100%	95%	3.22	3.25
O=C(Nc1cc(C(F)F)ccc1C(F)F)N1CCC(c2nc(C3=NOC(C(F)(F)c4ccccc4)C3)cs2)CC1 (stereo not drawn) [I-16, N-[2,5-Bis(difluoromethyl)phenyl]-4-(4-{5-[difluoro(phenyl)methyl]-4,5-dihydro-1,2-oxazol-3-yl}-1,3-thiazol-2-yl)piperidine-1-carboxamide]	87%		100%		3.64	
O=C(Cn1nc(C(F)F)cc1C(F)F)N1CCC(c2nc(C3=NOC(C(F)(F)c4ccccc4)C3)cs2)CC1 (stereo not drawn) [I-9, 2-[3,5-Bis(difluoromethyl)-1H-pyrazol-1-yl]-1-[4-(4-{5-[difluoro(phenyl)methyl]-4,5-dihydro-1,2-oxazol-3-yl}-1,3-thiazol-2-yl)piperidin-1-yl]ethanone]	100%		100%	97%	3.41	
O=C(Cn1nc(C(F)F)cc1C(F)F)N1CCC(c2nc(C3=NOC(COc4c(Br)cccc4Br)C3)cs2)CC1 (stereo not drawn) [I-36]	100%	3.9	100%	78%		
Cc1cc(C(F)(F)F)nn1CC(=O)N1CCC(c2nc(C3=NOC(C(F)c4ccccc4)C3)cs2)CC1 (stereo not drawn) [I-19]	94%	3.3^[a]	100%			
COC(c1ccccc1)C1CC(c2csc(C3(F)CCN(C(=O)Cn4nc(C(F)F)cc4C(F)F)CC3)n2)=NO1 (stereo not drawn) [I-15, 2-[3,5-Bis(difluoromethyl)-1H-pyrazol-1-yl]-1-[4-fluoro-4-(4-{5-[methoxy(phenyl)methyl]-4,5-dihydro-1,2-oxazol-3-yl}-1,3-thiazol-2-yl)piperidin-1-yl]ethanone]			95%		3.56	
Fc1cccc(F)c1C(F)(F)C1CC(c2csc(C3CCN(C(=S)Cn4nc(C(F)F)cc4C(F)F)CC3)n2)=NO1 (stereo not drawn) [I-42]	100%	3.94^[a]	95%			
O=C(Cc1cc(Cl)ccc1Cl)N1CCC(c2nc(C3=NOC(COc4ccccc4)C3)cs2)CC1 (stereo not drawn) [I-23]	89%	3.89	95%			
O=C(Cn1nc(C(F)F)cc1C(F)F)N1CCC(c2nc(C3=NOC(CSc4ccccc4F)C3)cs2)CC1 (stereo not drawn) [I-55]	100%	3.54	94%			
Cc1cc(C(F)(F)F)nn1CC(=O)N1CCC(c2nc(C3=NOC(C(F)c4c(F)cccc4F)C3)cs2)CC1 (stereo not drawn) [I-20]	93%	3.48^[a]	95%			
O=C(Cn1nc(C(F)F)cc1C(F)F)N1CCC(c2nc(-c3cc(COc4ccccc4)on3)cs2)CC1 [I-44]	100%	3.63	95%			
O=C(Cn1nc(C(F)F)cc1C(F)F)N1CCC(c2nc(C3=NOC(C(F)(F)c4cccs4)C3)cs2)CC1 (stereo not drawn) [I-57]	100%	3.33^[a]	95%			
O=C(Cn1nc(C(F)F)cc1C(F)F)N1CCC(c2nc(C3=NOC(CSc4ccccc4Br)C3)cs2)CC1 (stereo not drawn) [I-63]	96%	3.72	91%			
